Results as given in EP4789680A1, “NOVEL PACE4 INHIBITOR AND USE THEREOF IN ANTI-OSTEOARTHRITIS” (Inflamax Pharmaceuticals Limited, priority 2023, dated 2025).
Where a SMILES comes first, the peptide text is derived from it. Where no end group is shown, it is not given here. [ ]: non-standard residue; d: D form. ξ: configuration not given here. Abu(1-amidino-4-piperidyl) = N=C(N)N1CCC(CC[C@H](N)C(=O)O)CC1; Phe(4-CF3) = N[C@@H](Cc1ccc(C(F)(F)F)cc1)C(=O)O; dThr(3ξ) = CC(O)[C@@H](N)C(=O)O

T1: PACE4 (UniProt P29122 150-969, limits assumed)
T1 sequence (looked up): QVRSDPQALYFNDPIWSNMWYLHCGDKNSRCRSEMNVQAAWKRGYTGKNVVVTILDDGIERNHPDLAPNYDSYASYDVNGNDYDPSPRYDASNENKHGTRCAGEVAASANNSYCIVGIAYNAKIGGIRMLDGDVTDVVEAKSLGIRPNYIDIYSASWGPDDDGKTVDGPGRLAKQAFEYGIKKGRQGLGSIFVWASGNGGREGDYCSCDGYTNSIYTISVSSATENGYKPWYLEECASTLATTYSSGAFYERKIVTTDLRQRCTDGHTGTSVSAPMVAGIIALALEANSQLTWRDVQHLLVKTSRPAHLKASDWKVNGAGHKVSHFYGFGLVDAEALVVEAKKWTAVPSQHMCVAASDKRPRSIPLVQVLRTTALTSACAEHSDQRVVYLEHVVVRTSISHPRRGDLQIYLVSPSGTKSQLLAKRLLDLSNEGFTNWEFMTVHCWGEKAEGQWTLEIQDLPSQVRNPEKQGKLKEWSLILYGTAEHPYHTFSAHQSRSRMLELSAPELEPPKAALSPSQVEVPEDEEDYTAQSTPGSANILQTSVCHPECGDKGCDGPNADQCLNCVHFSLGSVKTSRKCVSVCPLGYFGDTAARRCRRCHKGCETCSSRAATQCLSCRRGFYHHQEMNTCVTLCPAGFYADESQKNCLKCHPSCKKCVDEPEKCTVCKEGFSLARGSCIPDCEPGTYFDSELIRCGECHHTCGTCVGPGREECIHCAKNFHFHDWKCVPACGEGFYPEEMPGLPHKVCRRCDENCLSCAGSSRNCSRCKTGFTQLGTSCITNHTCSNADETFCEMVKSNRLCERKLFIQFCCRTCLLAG

T2: PACE4 (Homo sapiens, UniProt P29122)
T2 sequence (P29122 150-969): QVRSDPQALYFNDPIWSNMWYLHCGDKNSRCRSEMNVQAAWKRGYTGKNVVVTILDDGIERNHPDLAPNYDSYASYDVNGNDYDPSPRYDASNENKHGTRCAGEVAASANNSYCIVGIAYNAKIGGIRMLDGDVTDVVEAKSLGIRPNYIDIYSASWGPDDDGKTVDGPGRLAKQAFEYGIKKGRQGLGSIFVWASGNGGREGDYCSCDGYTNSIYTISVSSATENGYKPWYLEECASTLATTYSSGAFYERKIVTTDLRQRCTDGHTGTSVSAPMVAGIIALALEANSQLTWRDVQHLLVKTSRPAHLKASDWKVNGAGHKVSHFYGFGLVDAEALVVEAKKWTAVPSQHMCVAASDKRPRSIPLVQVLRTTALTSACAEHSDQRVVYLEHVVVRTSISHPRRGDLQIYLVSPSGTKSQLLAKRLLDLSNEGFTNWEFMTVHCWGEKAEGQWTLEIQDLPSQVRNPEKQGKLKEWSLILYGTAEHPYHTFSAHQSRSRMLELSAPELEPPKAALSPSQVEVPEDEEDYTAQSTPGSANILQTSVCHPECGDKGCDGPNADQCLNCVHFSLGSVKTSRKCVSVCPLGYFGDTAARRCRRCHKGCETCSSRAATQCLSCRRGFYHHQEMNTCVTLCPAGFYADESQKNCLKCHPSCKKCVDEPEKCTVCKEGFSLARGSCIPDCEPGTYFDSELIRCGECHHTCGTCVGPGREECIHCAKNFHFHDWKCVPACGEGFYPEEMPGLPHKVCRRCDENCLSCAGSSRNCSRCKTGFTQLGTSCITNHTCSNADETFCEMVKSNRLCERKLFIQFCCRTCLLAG


Target: T1, PACE4
Experiment: cell-based or functional assay
Conditions: not given

| Molecule | IC50 (µM), PACE4 enzyme inhibition, fluorogenic substrate pyroGlu-Arg-Val-Lys-Arg-methyl-coumaryl-7-amide [µM] |
| --- | --- |
| Ac-R[Phe(4-CF3)]KRT-NH2 (SMILES CC(=O)N[C@@H](CCCNC(=N)N)C(=O)N[C@@H](Cc1ccc(C(F)(F)F)cc1)C(=O)N[C@@H](CCCCN)C(=O)N[C@@H](CCCNC(=N)N)C(=O)N[C@H](C(N)=O)[C@@H](C)O) [Ac-R-F(4-CF3)-K-R-T-NH2] | 0.74 |
| [dP][dR]RFKR[dT]-NH2 (N-terminus assumed; SMILES C[C@H](O)[C@@H](NC(=O)[C@H](CCCNC(=N)N)NC(=O)[C@H](CCCCN)NC(=O)[C@H](Cc1ccccc1)NC(=O)[C@H](CCCNC(=N)N)NC(=O)[C@@H](CCCNC(=N)N)NC(=O)[C@H]1CCCN1)C(N)=O) [dP-dR-R-F-K-R-dT-NH2] | 0.07 |
| Ac-R[Phe(4-CF3)]KR[dT]-NH2 (SMILES CC(=O)N[C@@H](CCCNC(=N)N)C(=O)N[C@@H](Cc1ccc(C(F)(F)F)cc1)C(=O)N[C@@H](CCCCN)C(=O)N[C@@H](CCCNC(=N)N)C(=O)N[C@@H](C(N)=O)[C@H](C)O) [Ac-R-F(4-CF3)-K-R-dT-NH2] | 0.35 |
| P[dR]RFKR[dT]-NH2 (N-terminus assumed; SMILES C[C@H](O)[C@@H](NC(=O)[C@H](CCCNC(=N)N)NC(=O)[C@H](CCCCN)NC(=O)[C@H](Cc1ccccc1)NC(=O)[C@H](CCCNC(=N)N)NC(=O)[C@@H](CCCNC(=N)N)NC(=O)[C@@H]1CCCN1)C(N)=O) [P-dR-R-F-K-R-dT-NH2] | 0.02 |

Target: T2, PACE4
Experiment: PACE4 enzyme inhibition experiment (fluorogenic substrate, competitive inhibition)
Type: biochemical
Conditions: substrate pyroGlu-Arg-Val-Lys-Arg-methyl-coumaryl-7-amide 100 µM, pH 6.5, 37°C, 60 min
Method: The PACE4 inhibitory peptides obtained from the above example were subjected to in vitro assay of PACE4 inhibitory effect. The specific steps were as follows: the PACE4 enzyme inhibition experiment was performed in a solution containing 20 mM Bis-Tis at pH 6.5, 1 mM CaCl2, and 1.8 mg/mL BSA. All assays were performed using pyroGlu-Arg-Val-Lys-Arg-methyl-coumaryl-7-amide (Bachem, CA) (100 µM) as the substrate. The assay was conducted at 37°C for 60 min. A Gemini EM 96-well fluorescence spectrometer (Molecular Devices, CA) (Ex: 370 nm, Em: 460 nm) was used. The PACE4 inhibitory peptide involved in the present patent was added to the test solution at different concentrations for competitive inhibition assay to determine the IC50 value of the peptide.

| Molecule | IC50 [nM] |
| --- | --- |
| CC(=O)N[C@@H](CCCNC(=N)N)C(=O)N[C@@H](CCCNC(=N)N)C(=O)N[C@@H](CCC1CCN(C(=N)N)CC1)C(=O)N[C@@H](CCCCN)C(=O)N[C@@H](CCCNC(=N)N)C(=O)N[C@@H](C(N)=O)C(C)O (stereo partly shown) [Ac-R-R-A(4-Pip)-K-R-dT-NH2] (Ac-RR[Abu(1-amidino-4-piperidyl)]KR[dThr(3ξ)]-NH2) | 90 |
| CC(=O)N[C@@H](CCCNC(=N)N)C(=O)N[C@@H](CCCNC(=N)N)C(=O)N[C@@H](Cc1ccc(C(F)(F)F)cc1)C(=O)N[C@@H](CCCCN)C(=O)N[C@@H](CCCNC(=N)N)C(=O)N[C@@H](C(N)=O)[C@H](C)O [Ac-R-R-F(4-CF3)-K-R-dT-NH2] (Ac-RR[Phe(4-CF3)]KR[dT]-NH2) | 90 |
| C[C@H](O)[C@@H](NC(=O)[C@H](CCCNC(=N)N)NC(=O)[C@H](CCCCN)NC(=O)[C@H](Cc1ccc(C(F)(F)F)cc1)NC(=O)[C@H](CCCNC(=N)N)NC(=O)[C@@H](CCCNC(=N)N)NC(=O)[C@@H]1CCCN1)C(N)=O [P-dR-R-F(4-CF3)-K-R-dT-NH2] (H-P[dR]R[Phe(4-CF3)]KR[dT]-NH2) | 20 |
| C[C@H](O)[C@@H](NC(=O)[C@H](CCCNC(=N)N)NC(=O)[C@H](CCCCN)NC(=O)[C@H](Cc1ccccc1)NC(=O)[C@H](CCCNC(=N)N)NC(=O)[C@@H](CCCNC(=N)N)NC(=O)[C@@H]1CCCN1)C(N)=O [P-dR-R-F-K-R-dT-NH2] (H-P[dR]RFKR[dT]-NH2) | 20 |
| C[C@H](O)[C@@H](NC(=O)[C@H](CCCNC(=N)N)NC(=O)[C@H](CCCCN)NC(=O)[C@H](Cc1ccccc1)NC(=O)[C@H](CCCNC(=N)N)NC(=O)[C@@H](CCCNC(=N)N)NC(=O)[C@H]1CCCN1)C(N)=O [dP-dR-R-F-K-R-dT-NH2] (H-[dP][dR]RFKR[dT]-NH2) | 70 |
| C[C@H](O)[C@@H](NC(=O)[C@H](CCCNC(=N)N)NC(=O)[C@H](CCCCN)NC(=O)[C@H](Cc1ccc(C(F)(F)F)cc1)NC(=O)[C@H](CCCNC(=N)N)NC(=O)[C@@H](CCCNC(=N)N)NC(=O)[C@H]1CCCN1)C(N)=O [dP-dR-RF(4-CF3)-K-R-dT-NH2, dP-dR-R-F(4-CF3)-K-R-dT-NH2] (H-[dP][dR]R[Phe(4-CF3)]KR[dT]-NH2) | 20 |
